Test results: patent US7560473B2 (Institute of Pharmacology and Toxicology Academy of …, priority 2001, dated 2009)

What was measured:
[1] = test system: rats anesthetized with pentobarbital sodium; assay: Effects on blood pressure, heart rate, cardiac contraction and dilation in rats anesthetized with pentobarbital sodium; format: in vivo, Wistar rats; parameters: unit not given here; conditions: change after injection through femoral vein, '+' = increase, all others = decrease
Experimental: Biological activity experiment 1. The effects of 16 compounds represented by formula I on blood pressure, heart rate, cardiac contraction and dilation in rats anesthetized with pentobarbital sodium.
The methods of biological activity experiment 1 were as follows: Male Wistar rats, weighing 280±30 g were purchased from the experimental animal center of Academy of Military Medical Sciences. Rats were anesthetized with pentobarbital sodium (45 mg/kg) by peritoneal injection. A PE50 polyethylene catheter was inserted into the left ventricle through right carotid artery for cardiac function measurement with a pressure energe exchanger, wherein the signal is put into a SMUP-PC biosignal processing system. Cardiac functional parameters such as HR, LVSP, +dp/dtmax, −dp/dtmax and Vpm were recorded. Another two PE50 polyethylene catheters were inserted into the right femoral artery and vein respectively for blood pressure measurement wherein the artery cathether was linked to a four-channel physiology recorder (RM-6000) through a MPU-0.5A Type pressure energe exchanger, which recorded SBP, DBP and MBP, while the vein catheter was used for compound administration. The methods were described by Liu Wei et al: Liu Wei, Wang Hai, Xiao Wen-Bin. […] Bull Acad Mil Med Sci 1996;20(4):245˜248.

[2] = test system: outward potassium currents of rat tail arterial SMCs; assay: Whole cell recording of outward potassium currents in rat tail arterial SMCs; format: cell-based, Wistar rats; conditions: X ± SD n = 5
Description: Biological activity experiments 6. The effects of novel compounds on potassium currents in isolated arterial vascular smooth muscle cells (SMCs).
The outward currents were, elicited in rat tail arterial SMCs by superfusing extracellular solution under whole cell recording configuration that the depolarizing pulse were applied from −30 mV to +100 mV with the holding potential of −40 mV in 100 ms, 10 mV clamp steps, a frequency of 5 KHz. The compounds were applied in the bath at the concentrations of 100 μmol L^−1. The amplitude of the outward potassium currents was recorded before and after compound application Values were expressed as means±SD. Statistical significance between two groups was evaluated by student's t-test for paired data * P<0.05 **P<0.01 vs control.
1. Preparation of single smooth muscle cells from rat tail arteries: Male Wistar rats (200-250 g) were killed by exsanguination. The tail artery was dissected out and transferred into cold physiological salt solution (PSS) of the following composition (in mM): NaCl 118.3, KCl 4.7, KH2PO4 1.2, MgSO4 1.2, NaHCO3 25.0, CaCl2 2.5, EDTA 0.026 and Glucose 5.0 pH7.4. With the use of a dissecting microscope, the connective tissues were removed and the artery was cut open longitudinally. Endothelium was removed carefully with a cotton swab then the artery was cut into segments with 1 mm long and placed in 4° C. the extracellular solution containing (in mM) NaCl 130, KCl 5, MgCl2 1.2, HEPES 10, Glucose 10, pH7.2 for 20 min. After this incubation, the medium was changed to enzyme solution which was composed of collagenase I (1 mg ml^−1), papain (5 mg ml^−) and bovine serum albumin (2 mg ml^−1). The tissues, were incubated in this solution for 40 min, and then rinsed three times triturated using a fire-polished Pasteur pipette until the medium turned cloudily. The cell suspension was stored in the refrigerator at 4° C.
3. Whole cell recordings: A bath dish with the smooth muscle cells (SMCs) attached and superfused with the extracellular solution at a flow rate of 2 ml min^−1 was mounted onto the stage of an inverted-phase contrast microscope. The microelectrodes having a resistance of (5-8 MΩ) were made from boroscilicate thin-wall glass capillaries, using an automatic multiple-stage, electronic puller (PP830 Japan) and then heat-polished. After establishing a high resistance seal, the patch membrane was disrupted by negative pressure. A commercial patch clamp amplifier (Axon 200B) was used to generate and apply voltages and sample current signals from the cell.

[3] = mean, n = 3~5, doses mg/kg: 2, 8, 12: 10, 3-7, 9-11, 40-44: 5

**Q.** Which “MBP: mean blood pressure” value ([1]; n = 3~5, doses mg/kg: 2, 8, 12: 10, 3-7, 9-11, 40-44: 5) does the source give for `CCCNC(C)(C)C(C)C` [compound 5, N-propyl-2,3-dimethyl-2-butylamine] here?
**A.** 28

**Q.** And the “DBP: diastolic blood pressure” value [1, 3]?
**A.** 25

**Q.** And the “HR: heart rate” value [1, 3]?
**A.** 78

**Q.** What about the “LVSP: left ventricular systolic pressure” value [1, 3] of the same compound?
**A.** 162

**Q.** And the “SBP: systolic blood pressure” value [1, 3]?
**A.** 34

**Q.** And the “Vpm: the physiological velocity of contractile element shorting” value [1, 3]?
**A.** 0.58

**Q.** And the “−dp/dtmax: the maximal rate of the decrease of left ventricular pressure” value [1, 3]?
**A.** 187

**Q.** What about the “Currents, + Compound” value ([2]; outward potassium current amplitude after compound 100 μmol L^−1 in the bath) of the same compound?
**A.** 0.67 ± 0.30 nA

**Q.** What about the “Currents, Control (before compound application)” value ([2]; outward potassium current amplitude before compound application, same cells) of the same compound?
**A.** 0.65 ± 0.30 nA

**Q.** What about the melting point of the same compound?
**A.** 183 to 185 °C
